According to patent publication US20090024021A1, “Methods and Systems for Using Transcranial Magnetic Stimulation and Functional Brain Mapping for Examining Cortical Sensitivity, Brain Communication, and Effects of Medication” (priority 2002, published 2009):
Entries after “also recorded” stand apart in the source; their conditions may differ.

Tests used:
[1] = Safety and tolerability in the crossover trial; format: in vivo, human; conditions: single oral dose of 325 mg LTG; healthy young men
Description: (§1) Study design: We performed a randomized, double-blind, crossover trial involving two visits at least one week apart (FIG. 8). […] Serum LTG levels, RMTs, and interleaved TMS/phMRI images during both motor and then prefrontal TMS were then gathered for each subject. One week later they received LTG or placebo again, followed by identical RMT and interleaved TMS/phMRI studies.
General Procedure: After arriving at the laboratory in the early afternoon, baseline RMT was determined and baseline plasma levels of LTG were drawn. They were then given a single oral dose of 325 mg LTG or placebo. They then waited quietly for 3 hours. Three hours after taking the oral pill, RMT was determined and serum plasma levels were again drawn.

left prefrontal cortex = assay: Interleaved TMS/phMRI (BOLD fMRI) with TMS over prefrontal cortex; format: in vivo, human; conditions: for Voxels, effect of LTG (between day) / Z-score, effect of LTG (between day): Prefrontal Cortex Stimulation, LTG-Placebo
Description: as §1
Combined TMS and MRI: Immediately following RMT determination, interleaved TMS/phMRI acquisitions were performed in a Picker EDGE 1.5 T MR scanner with actively shielded magnet and high-performance gradients (27 mT/m, 72 T/m/sec) using a typical gradient echo, echo planar imaging (EPI) fMRI sequence (tip angle=90, TR=3 sec, FOV 27.0 cm, fifteen 7 mm thick slices, 1 mm gap). TMS was delivered using a Dantec MagPro with a special nonferromagnetic TMS coil of figure-8 design with an 8-meter cable (Dantec Medical A/S, Skovlunde, Denmark) and a room set up identical to prior TMS/fMRI studies from our group. TMS pulses and the fMRI sequence were interleaved as described before^21. Each cycle, illustrated in FIG. 9, consisted of six 21-sec sub-cycles—four Test and two task (100% RMT stimulation and 120% RMT stimulation). During each sub-cycle, the scanner acquired seven sets of 15 transverse images. During the task sub-cycles the TMS was triggered 100 ms after every […] image acquisition to produce a TMS stimulation rate of 1 Hz. The entire TMS/fMRI sequence lasted 882 sec (14.7 min).
On each visit, immediately after the Motor Cortex MRI study, subjects were removed from the scanner and the TMS device was moved to position it over the left prefrontal cortex. The left prefrontal cortex stimulation site was defined as a location 5-cm rostral and in a parasagittal plane from the site of maximal APB stimulation. Subjects then reentered the scanner for the prefrontal TMS scan, which was identical to the Motor study described above except for the TMS coil location.
Individual fMRI Data Analyses: MR scans were transferred into ANALYZE format and then further processed on Sun workstations (Sun Microsystems, Palo Alto, Calif.). Scans were checked using MEDx3.3 (Sensor Systems Inc, Sterling, Va.) for movement across runs, and then were coregistered to a mean image using automatic image registration. […] After correction of motion, we used a delayed boxcar model, employed a high-pass filter to remove signal drift, cardiac and respiratory effects, and other low frequency artifacts. Then, we spatially transformed each subject's data into the Talairach Atlas (input voxel dimensions, 2.1×2.1×8 mm, to output voxel dimensions, 4×4×4 mm), smoothed (4×2 mm) the data and generated z map with the Statistical Parametric Mapping (SPM) 96 module in MEDx3.3. We assumed an uncorrected F threshold UF P>0.99 to preserve as many voxels as possible for the cluster analysis.
Group fMRI Data Analyses: All subject's unthresholded z maps were combined based on comparison of condition (TMS vs Rest), intensity (100% RMT-TMS vs 120% RMT-TMS), visit (LTG vs Placebo). The combined group z maps were thresholded using z≧3.09 (p≦0.001) and cluster statistical weight (spatial extent threshold) of p<0.05. We used either paired or unpaired t-tests in MEDx3.3 for all comparisons of interest and both areas of stimulation.
Magnitude of BOLD time course response: To compare the magnitudes of BOLD signal changes, two types of data were recorded. The different maps of LTG and placebo were used to make a mask of left motor cortex (82 voxels) and a mask of left hippocampus (19 voxels) (FIGS. 11A and 11B bottom panels). The masks used to define location were taken as an index of relative peak intensity above noise. According to the masks' Talairach coordinates, the mean signal intensity of the highest six contiguous voxels (two in each slice) in each subject was extracted from motor cortex or hippocampus with SPM plotting in MEDx.

With `Nc1nnc(-c2cccc(Cl)c2Cl)c(N)n1` [LTG, Lamotrigine] the “adverse effects of the drug treatment or the stimulation” value [1] was “None of the subjects reported experiencing adverse effects”, the “number of active voxels in hippocampus, compared with placebo” value (left prefrontal cortex; 100% RMT minus rest over prefrontal cortex, left hippocampus, 8 subjects, Wilcoxon p=0.04) was “significantly more; also recorded: significantly increased” and the “Z-score, region of activation” value (left prefrontal cortex; LTG day, within day, n = 8, 100% RMT-Rest, Left Hippocampus, Talairach −24,−8,−24) was 3.53. The “Z-score, region of activation” value (left prefrontal cortex; LTG day, within day, n = 8, 100% RMT-Rest, Left cingulated gyrus, Talairach −8,−8,28) was 4.08, the “Z-score, region of activation” value (left prefrontal cortex; LTG day, within day, n = 8, 100% RMT-Rest, Left middle frontal gyrus (BA 6), Talairach −32,4,60) was 4.04 and the “Z-score, region of activation” value (left prefrontal cortex; LTG day, within day, n = 8, 100% RMT-Rest, Right hippocampus, Amygdala, Talairach 20,−8,−16) was 3.66. The “Z-score, region of activation” value (left prefrontal cortex; LTG day, within day, n = 8, 100% RMT-Rest, Right insula (BA 13), Talairach 52,−28,20) was 4.26, the “Z-score, region of activation” value (left prefrontal cortex; LTG day, within day, n = 8, 100% RMT-Rest, Right middle frontal gyrus, Talairach 40,48,16) was 3.96 and the “Z-score, region of activation” value (left prefrontal cortex; LTG day, within day, n = 8, 100% RMT-Rest, Right postcentral gyrus (BA 3), Talairach 52,−16,40) was 3.18. For the same compound, the “Z-score, region of activation” value (left prefrontal cortex; LTG day, within day, n = 8, 100% RMT-Rest, Right precentral gyrus, Talairach 36,−4,28) was 4.02, the Region of activation (left prefrontal cortex; LTG day, within day, n = 8, 120% RMT-100%) was “No activity” and the “Z-score, region of activation” value (left prefrontal cortex; LTG day, within day, n = 8, 120% RMT-Rest, Left cingulate gyrus, Talairach −8,4,36) was 3.98. For the same compound, the “Z-score, region of activation” value (left prefrontal cortex; LTG day, within day, n = 8, 120% RMT-Rest, Left medial frontal gyrus (BA 6), Talairach −48,44,−4) was 4.15, the “Z-score, region of activation” value (left prefrontal cortex; LTG day, within day, n = 8, 120% RMT-Rest, Left postcentral gyrus (BA 2), Talairach −56,−24,36) was 4.12 and the “Z-score, region of activation” value (left prefrontal cortex; LTG day, within day, n = 8, 120% RMT-Rest, Left superior temporal gyrus, Talairach −60,4,−4) was 4.14. For the same compound, the “Z-score, region of activation” value (left prefrontal cortex; LTG day, within day, n = 8, 120% RMT-Rest, Right precentral gyrus, Talairach 52,−8,44) was 4.31, the “Z-score, region of activation” value (left prefrontal cortex; LTG day, within day, n = 8, 120% RMT-Rest, Right superior temporal gyrus, Talairach 56,−12,8) was 4.53 and the “Voxels, effect of LTG (between day)” value (left prefrontal cortex; Gyrus frontal medius, Right) was 35. The “Z-score, effect of LTG (between day)” value (left prefrontal cortex; Gyrus frontal medius, Right, Talairach 30,25,41, p < .01) was 2.83, the “Voxels, effect of LTG (between day)” value (left prefrontal cortex; Hippocampus, Left) was 19 and the “Z-score, effect of LTG (between day)” value (left prefrontal cortex; Hippocampus, Left, Talairach −25,−11,−25, p < .05) was 2.26. The “Voxels, effect of LTG (between day)” value (left prefrontal cortex; Insula, Right) was 57, the “Z-score, effect of LTG (between day)” value (left prefrontal cortex; Insula, Right, Talairach 39,13,1, p < .01) was 2.83 and the “Voxels, effect of LTG (between day)” value (left prefrontal cortex; Postcentral gyrus, Right) was 59. For the same compound, the “Z-score, effect of LTG (between day)” value (left prefrontal cortex; Postcentral gyrus, Right, Talairach 53,−32,40, p < .01) was 2.83, the “Voxels, effect of LTG (between day)” value (left prefrontal cortex; Temporal lobe, Left) was 112 and the “Z-score, effect of LTG (between day)” value (left prefrontal cortex; Temporal lobe, Left, Talairach −43,15,−25, p < .001) was 3.78. The “brain activity in the hippocampus and the orbital frontal gyrus, compared to placebo” value (left prefrontal cortex; formal between-day analysis, 100% RMT prefrontal stimulation vs rest, 8 subjects) was “increased brain activity; also recorded: increases this activity”, the “% BOLD signal change in left hippocampus, LTG vs placebo, entire time series” value (left prefrontal cortex; prefrontal TMS, 8 subjects, ANOVA F=1.12, p=0.326) was “failed to show significant differences” and the “% BOLD change in left hippocampus compared with placebo, TMS phase” value (left prefrontal cortex; prefrontal TMS, time points 14-17, 8 subjects, t=−2.69, p=0.009) was “significantly increased”.
